Ends that are not written are not given here. Peptide text beside a SMILES is read from it. * marks the point of attachment. Decanoyl = CCCCCCCCCC(=O)*
Experiments:
S. typhimurium C7731 = format: cell-based, Salmonella typhimurium; details: C7731, 20 h
Description: (§1) Escherichia coli ATCC25922, E. coli UB1005, Pseudomonas aeruginosa ATCC27853, Salmonella typhimurium ATCC14028, S. typhimurium C7731, Staphylococcus aureus ATCC29213, Methicillin-resistant S. aureus (MRSA) ATCC43300, S. epidermidis ATCC12228, and Enterococcus faecalis ATCC29212 were stored by the institute of animal nutrition, Northeast Agricultural University (Harbin, China). Multidrug-Resistant E. coli HP73 and E. coli HP74 were clinically isolated from swine-derived Escherichia coli and stored by the institute of animal nutrition, Northeast Agricultural University (Harbin, China).
(§2) The MICs were determined using a broth microdilution method with reference to Clinical and Laboratory Standards Institute (CLSI) guidelines ([Wiegand et al., 2008]). After a two-fold serial dilution of the peptides (50 μl, dilution buffer: 0.01% acetic acid containing 0.2% BSA) prepared in a 96-well plate, a series of an equal volume of bacterial solution (50 μl) prepared in Mueller-Hinton broth (MHB) were added to the same 96-well plate, and the final bacterial inoculum size in each well of the 96-well plate was approximately 5 × 10^5 CFU/ml. As positive and negative controls, bacteria solution without peptides and blank samples without bacteria were prepared in the same 96-well plate. […] The lowest peptide concentration at which there was no increase in optical density was referred to as the MIC.

S. typhimurium 14028 = format: cell-based, Salmonella typhimurium; details: 14028, 20 h
Description: as §1, §2

S. epidermidis 12228 = format: cell-based; details: 12228, 20 h
Description: as §1, §2

MRSA 43300 = format: cell-based, Methicillin-resistant S. aureus; details: 43300, 20 h
Description: as §1, §2

S. aureus 29213 = format: cell-based, Staphylococcus aureus; details: 29213, 20 h
Description: as §1, §2

E. faecalis 29212 = format: cell-based, Enterococcus faecalis; details: 29212, 20 h
Description: as §1, §2

E. coli 25922 = format: cell-based, Escherichia coli; details: 25922, 20 h
Description: as §1, §2

E. coli UB1005 = format: cell-based, Escherichia coli; details: UB1005, 20 h
Description: as §1, §2

HEK293T = test: MTT cytotoxicity assay; format: cell-based, human; details: 1 day incubation; for Cytotoxicity toward HEK293T: at the test concentrations
Protocol: (§3) 3-(4,5-dimethylthiozol-2-yl)-2,5-diphenyltetrazolium bromide (MTT) assay and live/dead cell staining assay were conducted to assess the peptide cytotoxicity. For the MTT assay, cell lines were seeded and passaged twice in high-glucose Dulbecco’s modified Eagle’s medium (DMEM, containing 100 μg/ml streptomycin, 100 U/ml penicillin, and 10% vol/vol fetal bovine serum) or Dulbecco’s Modified Eagle Medium/Nutrient Mixture F-12 (DMEM/F-12, containing 100 μg/ml streptomycin, 100 U/ml penicillin, and 10% vol/vol fetal bovine serum) at a 5% CO2 incubator (37°C). The cells (approximately 50,000 cells per well) were cultured in a 96-well plate at a 5% CO2 incubator for 1 day. Then various concentrations of peptide solutions (50 μl) were added to the plate and incubated for another 1 day. The cells solution without peptides and blank samples without cells and peptides were prepared in the same 96-well plate as positive and negative controls, respectively. Subsequently, MTT (0.5 mg/ml, 20 μl per well) was added and the plate was incubated for another 4 h. Removed all supernatant from the plate and added 150 μl of dimethyl sulfoxide. Finally, a microplate reader (Tecan GENios F129004, Austria) was used to record the absorbance data at OD570 nm. Melittin was employed as a control peptide. The cell viability was calculated using the previously described equation ([Lai et al., 2021]).

9 bacterial strains = test: Geometric mean MIC over the 9 bacterial strains; format: cell-based; details: geometric mean of the 9 strains of Table 1
Protocol: as §2

P. aeruginosa 27853 = format: cell-based, Pseudomonas aeruginosa; details: 27853, 20 h
Description: as §1, §2

IPEC-J2 = test: MTT cytotoxicity assay; format: cell-based, porcine; details: 1 day incubation; for Cytotoxicity toward IPEC-J2: at the test concentrations
Protocol: as §3

Molecule | MICs, S. typhimurium C7731 (S. typhimurium C7731) [µM] | MICs, S. typhimurium 14028 (S. typhimurium 14028) [µM] | MICs, S. epidermidis 12228 (S. epidermidis 12228) [µM] | MICs, MRSA 43300 (MRSA 43300) [µM] | MICs, S. aureus 29213 (S. aureus 29213) [µM] | MICs, E. faecalis 29212 (E. faecalis 29212) [µM] | MICs, E. coli 25922 (E. coli 25922) [µM] | MICs, E. coli UB1005 (E. coli UB1005) [µM] | Concentration above which significant cytotoxicity toward HEK293T (HEK293T) | GM, geometric mean MICs from the 9 bacterial strains (9 bacterial strains) [µM] | MICs, P. aeruginosa 27853 (P. aeruginosa 27853) [µM] | Concentration above which significant cytotoxicity toward IPEC-J2 (IPEC-J2) | Cytotoxicity toward HEK293T (HEK293T) | Cytotoxicity toward IPEC-J2 (IPEC-J2)
CCCCCCCCCC(=O)NCCCC[C@H](NC(=O)[C@H](CC(C)C)NC(=O)[C@H](CCCCN)NC(=O)[C@H](CCCCN)NC(=O)[C@H](CC(C)C)NC(=O)[C@H](CCCCNC(=O)CCCCCCCCC)NC(=O)[C@H](CCCCN)NC(=O)[C@H](CCCCN)NC(=O)[C@H](CC(C)C)NC(=O)[C@H](CCCCN)NC(=O)[C@H](CCCCN)NC(=O)[C@H](CC(C)C)NC(=O)[C@@H](N)Cc1c[nH]c2ccccc12)C(=O)N[C@@H](CCCCN)C(=O)N[C@@H](CCCCN)C(=O)O [WL-C10] (H-WLKKLKKK(Decanoyl)LKKLK(Decanoyl)KK-OH) | >128 | >128 | >128 | >128 | >128 | >128 | >64 | 16 | greater than 32 μM | 94.06 | >128 | greater than 32 μM |  | 
WLKKLKKK(Ac)LKKLK(Ac)KK [WL-C2] | 16 | 16 | 64 | 64 | 64 | 128 | 8 | 8 |  | 27.43 | 16 |  | no significant cytotoxicity | no significant cytotoxicity
WLKKLKKKLKKLKKK [WL] | 32 | 32 | 128 | 128 | 128 | >128 | 32 | 32 |  | 64.00 | 32 |  | no significant cytotoxicity | no significant cytotoxicity

From article PMC9780499, “Designing double-site lipidated peptide amphiphiles as potent antimicrobial biomaterials to combat multidrug-resistant bacteria” (Frontiers in Microbiology, 2022)
